For this data set, the target named is T1, hERG potassium channel (Homo sapiens, UniProt Q12809).
T1 construct: host or cells: HEK 293 T-REx
Briefly: Whole cell patch clamp, HEK 293 T-REx HERG cells. Format: cell-based. As to conditions: for hERG: percent value, test concentration not given. From the text:
For this experiment HEK 293 T-REx HERG cells (#23) were used. This cell line made by IonGate is characterized by the inducible expression of the hERG gene. The T-REx™ System (Invitrogen, Karlsruhe, Germany) is a tetracycline-regulated mammalian expression system that uses regulatory elements from the E. coli Tn10-encoded tetracycline (Tet) resistance operon. In the absence of Tet the expression is repressed. Tetracycline regulation in the T-REx™ System is based on the binding of tetracycline to the Tet repressor and derepression of the promoter controlling expression of the hERG gene. Addition of Tet to the cell culture media results in expression of the hERG potassium channel.
To construct the HEK 293 T-REx HERG cell line, the hERG gene was ligated into the inducible expression vector pcDNA4/TO (→pc4TO-HERG) and transfected into HEK 293 T-REx cells (this cell line stably expresses the Tet repressor and was purchased at Invitrogen). Stable cell clones were isolated after selection with Blasticidin (5 μg/ml) and Zeocin™ (300 μg/ml). The clones were electrophysiological characterized after induction with 1 μg/ml Tet.
Experiments were performed using the patch clamp set-up. Technical equipment needed for manipulation of the cells was placed on a vibration-isolated table and shielded with a Faraday cage to minimize electrical noise. The amplifier and control system were placed in a rack outside the Faraday cage. The system consisted of an EPC9 or EPC10 patch clamp amplifier (HEKA, Lambrecht, Germany), and the perfusion system DADVC8 (ALA Scientific, New York, USA) controlled by the Pulse software package (HEKA, Lambrecht, Germany) installed on a personal computer.
The cells used for this experiment were kept in continuous culture under standard conditions (37° C., air supplemented with 5% CO2). The HEK 293 T-REx HERG cells were kept in minimal essential medium (MEM) supplemented with 100 U/ml Penicillin, 100 μg/ml Streptomycin, 10% fetal calf serum (FCS), 1% non-essential amino acids (NEAA), 2.5 μg/ml amphotericin, 300 μg/ml Zeocin™ and 5 μg/ml Blasticidin. Cells were passed every 3-4 days after detachment using a Trypsin solution. The quality of the cultured cells was guaranteed by vitality and contamination tests. The culture of the cells was performed as described in protocol D described above.
At least 18 hours prior to electrophysiological experiments the cells were detached by application of iced PBS (phosphate buffered saline) or Trypsin and replated on cover slips. 1 μg/ml Tet was added to the cells to induce hERG expression.
Activity of the cardiac hERG channel was investigated using the patch clamp technique in its whole cell mode. This means that the current needed for clamping the whole cell expressing the K^+-channel protein to a specific potential was measured. The pipettes used for patch clamping were made of borosilicate glass. Measurements were performed at room temperature (20-25° C.). In each experiment (i.e. each cell) only one concentration of the compound was investigated no cumulative dosages were performed. Each cell acted as its own control. […]
After the whole cell configuration was established a series of pulses was applied to check for hERG expression and to optimize amplifier settings. However, only the following measurements were used for data analysis: 15 test pulses (FIG. 4a and Table 6a) were applied at 0.1 Hz (series 1) under constant superfusion with bath solution. The protocol was initiated by a leak test at −40 mV (50 ms). […] The maximum hERG tail current amplitude was measured at −40 mV (tail current test, 1.5 sec.). Only cells generating tail current amplitudes between 300 pA and 10 nA were used for the experimental procedure.
After successful characterization of the current another 10 test pulses were applied at 0.1 Hz while the cell was superfused with bath solution (series 2). […]
In general terms: In patch-clamp work, channel activity is measured electrically.

T1 sequence (Q12809 whole entry): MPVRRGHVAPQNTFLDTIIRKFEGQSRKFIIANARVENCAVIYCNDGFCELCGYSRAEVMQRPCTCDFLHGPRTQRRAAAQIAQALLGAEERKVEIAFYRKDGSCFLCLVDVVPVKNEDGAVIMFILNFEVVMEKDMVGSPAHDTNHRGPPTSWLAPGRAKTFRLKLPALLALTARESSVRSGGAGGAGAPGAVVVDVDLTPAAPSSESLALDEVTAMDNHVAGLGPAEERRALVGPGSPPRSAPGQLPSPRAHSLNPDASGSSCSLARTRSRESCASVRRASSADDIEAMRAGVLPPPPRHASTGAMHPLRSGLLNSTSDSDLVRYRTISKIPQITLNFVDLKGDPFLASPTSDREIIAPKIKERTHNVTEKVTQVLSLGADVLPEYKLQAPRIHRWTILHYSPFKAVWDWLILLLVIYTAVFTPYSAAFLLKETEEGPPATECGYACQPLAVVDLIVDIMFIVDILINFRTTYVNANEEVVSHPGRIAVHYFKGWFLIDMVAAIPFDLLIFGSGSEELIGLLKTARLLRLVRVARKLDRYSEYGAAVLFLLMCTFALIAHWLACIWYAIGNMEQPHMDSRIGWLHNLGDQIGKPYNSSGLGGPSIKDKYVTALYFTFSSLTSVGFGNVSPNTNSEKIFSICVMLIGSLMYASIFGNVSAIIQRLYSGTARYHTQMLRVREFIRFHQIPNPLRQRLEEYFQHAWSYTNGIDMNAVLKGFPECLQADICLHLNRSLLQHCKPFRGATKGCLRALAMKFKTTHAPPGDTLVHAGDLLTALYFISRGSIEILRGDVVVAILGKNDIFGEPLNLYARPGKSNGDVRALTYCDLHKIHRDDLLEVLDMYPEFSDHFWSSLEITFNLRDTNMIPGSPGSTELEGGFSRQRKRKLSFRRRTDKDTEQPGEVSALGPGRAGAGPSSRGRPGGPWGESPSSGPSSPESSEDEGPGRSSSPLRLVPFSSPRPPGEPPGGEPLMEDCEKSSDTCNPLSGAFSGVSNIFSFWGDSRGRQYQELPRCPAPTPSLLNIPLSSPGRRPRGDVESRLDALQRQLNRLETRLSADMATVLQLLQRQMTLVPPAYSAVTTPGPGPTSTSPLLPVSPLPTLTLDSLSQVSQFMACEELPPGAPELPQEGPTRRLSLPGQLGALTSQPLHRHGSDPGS

Consider `COc1ccccc1Nc1ccc(C(=O)N[C@H]2CCC[C@@H]2OCc2ccccc2)s1` [Compound 75, 2-(2-methoxy-phenylamino)-thiophene-5-carboxylic acid ((1S,2S)-2-benzyloxycyclopent-1-yl) amide], for which the hERG came out at 76%. Usually IC50 stands for the point on the concentration scale where inhibition reaches its midpoint. With `COc1ccccc1Nc1nc(C)c(C(=O)N[C@H]2CCC[C@@H]2OCc2ccccc2)s1` [Compound 68, 2-(2-methoxy-phenylamino)-4-methyl-thiazole-5-carboxylic acid (1S,2S)-2-(benzyloxycyclopent-1-yl) amide], the IC50 (estimated by Hill fit with hill=1, ymax=100, tested at 10 μM, n=2, read-out: IC50 (μM) hERG) was 7.95 µM. Compound `Cc1nc(Nc2cccc3ccccc23)sc1C(=O)N[C@H]1CCC[C@@H]1OCc1ccccc1` [Compound 93] returned a hERG of 59%.
